Measured values reported in ChEMBL document CHEMBL1126229, “Enol lactone derivatives as inhibitors of human neutrophil elastase and trypsin-like proteases” (Bioorg Med Chem Lett, 1992).

How the values were obtained:
[1] = target: T1, Neutrophil elastase (Homo sapiens) (UniProt P08246); assay: Specificity constant on human neutrophil elastase was determined at 18 percent and at 26 minutes for maximum inhibition and no enzyme activity was recovered over the 2 h-time
T1 sequence (whole entry): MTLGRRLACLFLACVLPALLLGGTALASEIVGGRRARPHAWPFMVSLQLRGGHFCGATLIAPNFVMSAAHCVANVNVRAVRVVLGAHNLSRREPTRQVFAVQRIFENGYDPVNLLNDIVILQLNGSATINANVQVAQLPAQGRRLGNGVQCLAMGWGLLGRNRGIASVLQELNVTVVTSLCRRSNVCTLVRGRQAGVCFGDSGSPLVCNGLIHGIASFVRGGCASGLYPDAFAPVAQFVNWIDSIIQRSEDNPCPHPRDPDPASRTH

[2] = target: T1, Neutrophil elastase (Homo sapiens); assay: Rate constant of acylation on human neutrophil elastase was determined at 18 percent and at 26 minutes for maximum inhibition and no enzyme activity was recovered over the 2 h-time
[3] = target: T1, Neutrophil elastase (Homo sapiens); assay: Binding constant on human neutrophil elastase was determined at 18 percent and at 26 minutes for maximum inhibition and no enzyme activity was recovered over the 2 h-time
[4] = target: T2, Chymotrypsin-like elastase family member 2A (Sus scrofa) (UniProt P08419); assay: Rate constant of acylation on porcine pancreatic elastase was determined at 60 percent and at 30 minutes for maximum inhibition and no enzyme activity was recovered over the 2 h-time
T2 sequence (whole entry): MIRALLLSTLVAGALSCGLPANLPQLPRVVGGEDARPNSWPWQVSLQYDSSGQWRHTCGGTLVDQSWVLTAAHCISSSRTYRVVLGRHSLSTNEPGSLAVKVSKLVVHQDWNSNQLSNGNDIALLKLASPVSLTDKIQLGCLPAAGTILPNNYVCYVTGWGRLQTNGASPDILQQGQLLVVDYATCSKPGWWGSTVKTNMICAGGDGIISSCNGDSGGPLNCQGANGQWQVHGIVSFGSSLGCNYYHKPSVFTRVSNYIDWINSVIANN

[5] = target: T2, Chymotrypsin-like elastase family member 2A (Sus scrofa); assay: Specificity constant on porcine pancreatic elastase was determined at 60 percent and at 30 minutes for maximum inhibition and no enzyme activity was recovered over the 2 h-time
[6] = target: T2, Chymotrypsin-like elastase family member 2A (Sus scrofa); assay: Binding constant on porcine pancreatic elastase was determined at 60 percent and at 30 minutes for maximum inhibition and no enzyme activity was recovered over the 2 h-time
[7] = target: T1, Neutrophil elastase (Homo sapiens); assay: Specificity constant on human neutrophil elastase was determined at 20 percent and at 99 minutes for maximum inhibition and no enzyme activity was recovered over the 2 h-time
[8] = target: T1, Neutrophil elastase (Homo sapiens); assay: Rate constant of acylation on human neutrophil elastase was determined at 20 percent and at 99 minutes for maximum inhibition and no enzyme activity was recovered over the 2 h-time
[9] = target: T1, Neutrophil elastase (Homo sapiens); assay: Binding constant on human neutrophil elastase was determined at 20 percent and at 99 minutes for maximum inhibition and no enzyme activity was recovered over the 2 h-time
[10] = target: T2, Chymotrypsin-like elastase family member 2A (Sus scrofa); assay: Rate constant of acylation on porcine pancreatic elastase was determined at 30 percent and at 99 minutes for maximum inhibition and no enzyme activity was recovered over the 2 h-time
[11] = target: T2, Chymotrypsin-like elastase family member 2A (Sus scrofa); assay: Specificity constant on porcine pancreatic elastase was determined at 30 percent and at 99 minutes for maximum inhibition and no enzyme activity was recovered over the 2 h-time
Serine protease 1 [12] = target: T3, Serine protease 1 (Homo sapiens, UniProt P07477); assay: Binding constant on trypsin was determined
Serine protease 1 [13] = target: T3, Serine protease 1; assay: Rate constant of acylation on trypsin was determined
Serine protease 1 [14] = target: T3, Serine protease 1; assay: Specificity constant on trypsin was determined
[15] = target: Chymotrypsinogen A (Bos taurus) (UniProt P00766); assay: Binding constant on alpha-chymotrypsin was determined
[16] = target: Chymotrypsinogen A (Bos taurus) (UniProt P00766); assay: Rate constant of acylation on alpha-chymotrypsin was determined
[17] = target: Chymotrypsinogen A (Bos taurus) (UniProt P00766); assay: Specificity constant on alpha-chymotrypsin was determined
[18] = target: T2, Chymotrypsin-like elastase family member 2A (Sus scrofa); assay: Binding constant on porcine pancreatic elastase was determined at 30 percent and at 99 minutes for maximum inhibition and no enzyme activity was recovered over the 2 h-time
Plasminogen [19] = target: T4, Plasminogen (Homo sapiens, UniProt P00747); assay: Rate constant of acylation on plasmin was determined at 0 percent and at 95 minutes for maximum inhibition and no enzyme activity was recovered over the 2 h-time
Plasminogen [20] = target: T4, Plasminogen; assay: Specificity constant on plasmin was determined at 0 percent and at 95 minutes for maximum inhibition and no enzyme activity was recovered over the 2 h-time
Plasminogen [21] = target: T4, Plasminogen; assay: Binding constant on plasmin was determined at 0 percent and at 95 minutes for maximum inhibition and no enzyme activity was recovered over the 2 h-time
[22] = target: T5, Urokinase-type plasminogen activator (Homo sapiens, UniProt P00749); assay: Binding constant on Urokinase-type plasminogen activator was determined at 0 percent and at 98 minutes for maximum inhibition and no enzyme activity was recovered over the 2 h-time
Prothrombin [23] = target: T6, Prothrombin (Homo sapiens, UniProt P00734); assay: Binding constant on thrombin was determined at 0 percent and at 93 minutes for maximum inhibition and no enzyme activity was recovered over the 2 h-time
Prothrombin [24] = target: T6, Prothrombin; assay: Rate constant of acylation on thrombin was determined at 0 percent and at 93 minutes for maximum inhibition and no enzyme activity was recovered over the 2 h-time
Prothrombin [25] = target: T6, Prothrombin; assay: Specificity constant on thrombin was determined at 0 percent and at 93 minutes for maximum inhibition and no enzyme activity was recovered over the 2 h-time
[26] = target: Chymotrypsinogen A (Bos taurus) (UniProt P00766); assay: Specificity constant on alpha-chymotrypsin was determined at 15 percent and at 78 minutes for maximum inhibition and no enzyme activity was recovered over the 2 h-time
[27] = target: T5, Urokinase-type plasminogen activator; assay: Rate constant of acylation on Urokinase-type plasminogen activator […] was determined at 0 percent and at 98 minutes for maximum inhibition and no enzyme activity was recovered over the 2 h-time
[28] = target: T5, Urokinase-type plasminogen activator; assay: Specificity constant on Urokinase-type plasminogen activator was determined at 0 percent and at 98 minutes for maximum inhibition and no enzyme activity was recovered over the 2 h-time
[29] = target: Chymotrypsinogen A (Bos taurus) (UniProt P00766); assay: Binding constant on alpha-chymotrypsin was determined at 15 percent and at 78 minutes for maximum inhibition and no enzyme activity was recovered over the 2 h-time
[30] = target: Chymotrypsinogen A (Bos taurus) (UniProt P00766); assay: Rate constant of acylation on alpha-chymotrypsin was determined at 15 percent and at 78 minutes for maximum inhibition and no enzyme activity was recovered over the 2 h-time
[31] = target: T1, Neutrophil elastase (Homo sapiens); assay: Specificity constant on human neutrophil elastase was determined at 48 percent and at 60 minutes for maximum inhibition and with 0 minutes persistence of inhibition
[32] = target: T1, Neutrophil elastase (Homo sapiens); assay: Rate constant of acylation on human neutrophil elastase was determined at 48 percent and at 60 minutes for maximum inhibition with 0 minutes persistence of inhibition
[33] = target: T1, Neutrophil elastase (Homo sapiens); assay: Binding constant on human neutrophil elastase was determined at 48 percent and at 60 minutes for maximum inhibition with 0 minutes persistence of inhibition
[34] = target: T2, Chymotrypsin-like elastase family member 2A (Sus scrofa); assay: Rate constant of acylation on porcine pancreatic elastase was determined at 42 percent and at 55 minutes for maximum inhibition and no enzyme activity was recovered over the 2 h-time
[35] = target: T2, Chymotrypsin-like elastase family member 2A (Sus scrofa); assay: Specificity constant on porcine pancreatic elastase was determined at 42 percent and at 55 minutes for maximum inhibition and no enzyme activity was recovered over the 2 h-time
[36] = target: T2, Chymotrypsin-like elastase family member 2A (Sus scrofa); assay: Binding constant on porcine pancreatic elastase was determined at 42 percent and at 55 minutes for maximum inhibition and no enzyme activity was recovered over the 2 h-time
Plasminogen [37] = target: T4, Plasminogen; assay: Binding constant on plasmin was determined at 0 percent and at 98 minutes for maximum inhibition and no enzyme activity was recovered over the 2 h-time
[38] = target: Tissue-type plasminogen activator (Homo sapiens) (UniProt P00750); assay: Binding constant on Tissue type plasminogen activator was determined at 15 percent and at 90 minutes for maximum inhibition and no enzyme activity was recovered over the 2 h-time
Prothrombin [39] = target: T6, Prothrombin; assay: Binding constant on thrombin was determined at 15 percent and at 98 minutes for maximum inhibition and no enzyme activity was recovered over the 2 h-time
Prothrombin [40] = target: T6, Prothrombin; assay: Rate constant of deacylation for thrombin
Serine protease 1 [41] = target: T3, Serine protease 1; assay: Binding constant on trypsin was determined at 0 percent and at 99 minutes for maximum inhibition and no enzyme activity was recovered over the 2 h-time
Serine protease 1 [42] = target: T3, Serine protease 1; assay: Rate constant of acylation on trypsin was determined at 0 percent and at 99 minutes for maximum inhibition and no enzyme activity was recovered over the 2 h-time
Serine protease 1 [43] = target: T3, Serine protease 1; assay: Specificity constant on trypsin was determined at 0 percent and at 99 minutes for maximum inhibition and no enzyme activity was recovered over the 2 h-time
Plasminogen [44] = target: T4, Plasminogen
Plasminogen [45] = target: T4, Plasminogen; remark: listed apart in the source
Prothrombin [46] = target: T6, Prothrombin
Prothrombin [47] = target: T6, Prothrombin; remark: listed apart in the source
[48] = target: Tissue-type plasminogen activator (Homo sapiens) (UniProt P00750)
[49] = target: T5, Urokinase-type plasminogen activator
[50] = target: T5, Urokinase-type plasminogen activator; remark: listed apart in the source
Description: Specificity constant on Urokinase-type plasminogen activator was determined at 0 percent and at 91 minutes for maximum inhibition and no enzyme activity was recovered over the 2 h-time

T4 sequence (P00747 97-580 limits assumed): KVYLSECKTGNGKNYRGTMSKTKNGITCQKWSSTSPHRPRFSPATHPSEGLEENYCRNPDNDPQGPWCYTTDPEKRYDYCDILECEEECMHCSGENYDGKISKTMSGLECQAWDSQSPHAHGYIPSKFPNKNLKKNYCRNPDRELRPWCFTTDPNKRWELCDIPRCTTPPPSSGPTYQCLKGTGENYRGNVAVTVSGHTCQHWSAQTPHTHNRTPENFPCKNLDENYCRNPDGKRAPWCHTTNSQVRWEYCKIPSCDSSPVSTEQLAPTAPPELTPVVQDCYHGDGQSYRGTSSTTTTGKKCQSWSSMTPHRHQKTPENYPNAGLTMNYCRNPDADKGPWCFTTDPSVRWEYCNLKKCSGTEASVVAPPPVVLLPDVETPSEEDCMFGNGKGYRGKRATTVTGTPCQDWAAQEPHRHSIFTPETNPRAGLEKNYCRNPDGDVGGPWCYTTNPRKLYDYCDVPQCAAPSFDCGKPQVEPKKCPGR
T4 sequence (P00747 581-810 limits assumed): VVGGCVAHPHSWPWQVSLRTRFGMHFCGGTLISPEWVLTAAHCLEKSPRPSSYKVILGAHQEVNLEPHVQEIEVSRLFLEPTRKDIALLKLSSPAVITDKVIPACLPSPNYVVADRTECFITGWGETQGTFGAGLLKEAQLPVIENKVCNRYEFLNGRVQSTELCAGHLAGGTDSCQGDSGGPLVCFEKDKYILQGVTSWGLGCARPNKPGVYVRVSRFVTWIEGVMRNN
T3 sequence (P07477 whole entry): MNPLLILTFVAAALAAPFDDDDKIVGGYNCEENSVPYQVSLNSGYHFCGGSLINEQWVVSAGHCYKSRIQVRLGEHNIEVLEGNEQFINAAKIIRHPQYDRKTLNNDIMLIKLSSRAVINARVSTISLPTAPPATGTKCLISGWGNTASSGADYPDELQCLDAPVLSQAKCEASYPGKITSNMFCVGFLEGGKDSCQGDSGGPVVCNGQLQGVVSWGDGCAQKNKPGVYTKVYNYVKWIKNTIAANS
Sequence of Tissue-type plasminogen activator (Homo sapiens) (P00750 36-562 limits assumed): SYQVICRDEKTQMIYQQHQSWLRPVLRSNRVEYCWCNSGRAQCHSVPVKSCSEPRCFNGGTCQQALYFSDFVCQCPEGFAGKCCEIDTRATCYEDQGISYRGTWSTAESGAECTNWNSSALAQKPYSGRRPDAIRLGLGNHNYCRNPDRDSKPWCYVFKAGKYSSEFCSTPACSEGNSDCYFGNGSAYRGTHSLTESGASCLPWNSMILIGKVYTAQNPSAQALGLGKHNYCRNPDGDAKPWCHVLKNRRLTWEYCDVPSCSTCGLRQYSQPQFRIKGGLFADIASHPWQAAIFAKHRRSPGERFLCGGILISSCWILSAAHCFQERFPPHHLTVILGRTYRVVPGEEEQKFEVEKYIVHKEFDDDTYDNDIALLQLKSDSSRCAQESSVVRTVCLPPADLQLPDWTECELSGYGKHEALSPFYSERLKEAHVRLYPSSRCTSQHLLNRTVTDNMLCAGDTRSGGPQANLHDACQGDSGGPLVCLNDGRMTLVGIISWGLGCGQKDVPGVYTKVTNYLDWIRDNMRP

For `CC1(C)CC(=O)O/C(=C/Br)C1`, the ka/Ki [1] was 667 M⁻¹ s⁻¹, the ka [2] was 1.8 min⁻¹ and the Ks/i [3] was 43.5 µM. It also gave a ka [4] of 0.43 min⁻¹, a ka/Ki [5] of 33.3 M⁻¹ s⁻¹ and a Ks/i [6] of 284 µM.
`CC(C)C1CC/C(=C/Br)OC1=O` (stereo not given) was tested, and the ka/Ki [7] was 37500 M⁻¹ s⁻¹, the ka [8] was 0.18 min⁻¹ and the Ks/i [9] was 0.08 µM. For the same molecule, the ka [10] was 0.28 min⁻¹, the ka/Ki [11] was 83.3 M⁻¹ s⁻¹ and the Ks/i (Serine protease 1 [12]) was 65 µM. It also gave a ka (Serine protease 1 [13]) of 2.4 min⁻¹, a ka/Ki (Serine protease 1 [14]) of 667 M⁻¹ s⁻¹ and a Ks/i [15] of 2.3 µM. The ka [16] was 1.6 min⁻¹, the ka/Ki [17] was 11700 M⁻¹ s⁻¹ and the Ks/i [18] was 58.8 µM.
`N=C(N)Nc1ccc(C2CC/C(=C\I)OC2=O)cc1` (stereo not given) was tested, and the ka (Plasminogen [19]) was 13.6 min⁻¹, the ka/Ki (Plasminogen [20]) was 7.55e+06 M⁻¹ s⁻¹ and the Ks/i (Plasminogen [21]) was 0.03 µM. For the same molecule, the Ks/i [22] was 0.16 µM, the Ks/i (Prothrombin [23]) was 0.93 µM and the ka (Prothrombin [24]) was 12.9 min⁻¹. It also gave a ka/Ki (Prothrombin [25]) of 233000 M⁻¹ s⁻¹, a ka/Ki [26] of 50000 M⁻¹ s⁻¹ and a ka [27] of 18.6 min⁻¹. The ka/Ki [28] was 1.95e+06 M⁻¹ s⁻¹, the Ks/i [29] was 2.4 µM and the ka [30] was 7.22 min⁻¹.
With `C=C1CC(C)(C)CC(=O)O1` the ka/Ki [31] was 333 M⁻¹ s⁻¹, the ka [32] was 0.77 min⁻¹ and the Ks/i [33] was 43.3 µM. The ka [34] was 0.51 min⁻¹, the ka/Ki [35] was 83.3 M⁻¹ s⁻¹ and the Ks/i [36] was 104 µM.
`N=C(N)NCc1ccc(C2CC/C(=C\I)OC2=O)cc1` (stereo not given) was tested, and the Ks/i (Plasminogen [37]) was 1.19 µM, the Ks/i [38] was 0.12 µM and the Ks/i (Prothrombin [39]) was 14.8 µM. It also gave a Kd (Prothrombin [40]) of 0.000217 s⁻¹, a Ks/i (Serine protease 1 [41]) of 0.08 µM and a ka (Serine protease 1 [42]) of 18.4 min⁻¹. It also gave a ka/Ki (Serine protease 1 [43]) of 3.83e+06 M⁻¹ s⁻¹, a ka (Plasminogen [44]) of 10.2 min⁻¹ and a ka/Ki (Plasminogen [45]) of 150000 M⁻¹ s⁻¹. For the same molecule, the ka (Prothrombin [46]) was 27.2 min⁻¹, the ka/Ki (Prothrombin [47]) was 33300 M⁻¹ s⁻¹ and the ka [48] was “Not measurable”. The ka [49] was 7.56 min⁻¹ and the ka/Ki [50] was 1.26e+07 M⁻¹ s⁻¹.
